Measured values reported in the supplement of paper PMC9663587.

Assays:
Assay in all cases: GR value, 72 h; higher = faster growth (1 = untreated, <0 = killing);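 note: breast cancer and non-malignant breast epithelial lines, nine half-log doses, viable cells counted by Hoechst and LIVE/DEAD dye imaging versus time-zero plates and DMSO controls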
AZD1775 = compound: C=CCn1c(=O)c2cnc(Nc3ccc(N4CCN(C)CC4)cc3)nc2n1-c1cccc(C(C)(C)O)n1 [AZD1775]
INK128/MLN0128 = compound: CC(C)n1nc(-c2ccc3oc(N)nc3c2)c2c(N)ncnc21 [INK128/MLN0128]
SHP099 = compound: CC1(CCN(CC1)C2=CN=C(C(=N2)N)C3=C(C(=CC=C3)Cl)Cl)N [SHP099]
Volasertib/BI6727 = compound: CC[C@@H]1C(=O)N(C)c2cnc(Nc3ccc(C(=O)N[C@H]4CC[C@H](N5CCN(CC6CC6)CC5)CC4)cc3OC)nc2N1C(C)C [Volasertib/BI6727]
THZ-P1-2 = compound: CN(C)C/C=C/C(=O)NC1=CC=C(C=C1)C(=O)NC2=CC=CC(=C2)NC3=NC=NC(=C3)C4=CNC5=CC=CC=C54 [THZ-P1-2]
BSJ-01-175 = compound: CN(C)C/C=C/C(=O)Nc1ccc(O[C@@H]2CCC[C@@H](Nc3ncc(Cl)c(-c4c[nH]c5ccccc45)n3)C2)cc1 [BSJ-01-175]
ABT-737 = compound: CN(C)CC[C@H](CSc1ccccc1)Nc1ccc(S(=O)(=O)NC(=O)c2ccc(N3CCN(Cc4ccccc4-c4ccc(Cl)cc4)CC3)cc2)cc1[N+](=O)[O-] [ABT-737]
Saracatinib/AZD0530 = compound: CN1CCN(CCOc2cc(OC3CCOCC3)c3c(Nc4c(Cl)ccc5c4OCO5)ncnc3c2)CC1 [Saracatinib/AZD0530]
Rucaparib = compound: CNCc1ccc(-c2[nH]c3cc(F)cc4c3c2CCNC4=O)cc1 [Rucaparib]
[1] = compound: CNc1nc(-c2ccc3c(N)n[nH]c3c2)cc(N2C[C@@H](C(=O)NC3CCCCC3)CC[C@H]2C)n1
Cediranib/AZD2171 = compound: COc1cc2c(Oc3ccc4[nH]c(C)cc4c3F)ncnc2cc1OCCCN1CCCC1 [Cediranib/AZD2171]
Buparlisib/NVP-BKM120 = compound: Nc1cc(C(F)(F)F)c(-c2cc(N3CCOCC3)nc(N3CCOCC3)n2)cn1 [Buparlisib/NVP-BKM120]

AU565
GR value (AZD1775; 0.001 µM): 0.879 GR | GR value (AZD1775; 0.003162 µM): 0.913 GR | GR value (AZD1775; 0.01 µM): 0.779 GR | GR value (AZD1775; 0.03162 µM): 0.585 GR | GR value (AZD1775; 0.1 µM): 0.612 GR | GR value (AZD1775; 0.3162 µM): 0.521 GR | GR value (AZD1775; 1 µM): 0.288 GR | GR value (AZD1775; 3.162 µM): 0.207 GR | GR value (AZD1775; 10 µM): -0.514 GR | GR value (INK128/MLN0128; 0.0003162 µM): 0.889 GR | GR value (INK128/MLN0128; 0.001 µM): 0.931 GR | GR value (INK128/MLN0128; 0.003162 µM): 0.62 GR | GR value (INK128/MLN0128; 0.01 µM): 0.249 GR | GR value (INK128/MLN0128; 0.03162 µM): 0.0411 GR | GR value (INK128/MLN0128; 0.1 µM): -0.0783 GR | GR value (INK128/MLN0128; 0.3162 µM): -0.0838 GR | GR value (INK128/MLN0128; 1 µM): -0.184 GR | GR value (INK128/MLN0128; 3.162 µM): -0.48 GR | GR value (SHP099; 0.001 µM): 0.972 GR | GR value (SHP099; 0.003162 µM): 0.94 GR | GR value (SHP099; 0.01 µM): 0.815 GR | GR value (SHP099; 0.03162 µM): 1.07 GR | GR value (SHP099; 0.1 µM): 1 GR | GR value (SHP099; 0.3162 µM): 0.949 GR | GR value (SHP099; 1 µM): 0.925 GR | GR value (SHP099; 3.162 µM): 0.932 GR | GR value (SHP099; 10 µM): 0.939 GR | GR value (Volasertib/BI6727; 0.0001 µM): 1.07 GR | GR value (Volasertib/BI6727; 0.0003162 µM): 0.998 GR | GR value (Volasertib/BI6727; 0.001 µM): 0.912 GR | GR value (Volasertib/BI6727; 0.003162 µM): 0.756 GR | GR value (Volasertib/BI6727; 0.01 µM): -0.409 GR | GR value (Volasertib/BI6727; 0.03162 µM): -0.516 GR | GR value (Volasertib/BI6727; 0.1 µM): -0.458 GR | GR value (Volasertib/BI6727; 0.3162 µM): -0.455 GR | GR value (Volasertib/BI6727; 1 µM): -0.206 GR | GR value (THZ-P1-2; 0.01 µM): 0.964 GR | GR value (THZ-P1-2; 0.03162 µM): 1.02 GR | GR value (THZ-P1-2; 0.1 µM): 0.979 GR | GR value (THZ-P1-2; 0.3162 µM): 0.842 GR | GR value (THZ-P1-2; 1 µM): 0.865 GR | GR value (THZ-P1-2; 3.162 µM): 0.881 GR | GR value (THZ-P1-2; 10 µM): -0.648 GR | GR value (BSJ-01-175; 0.001 µM): 0.954 GR | GR value (BSJ-01-175; 0.003162 µM): 0.82 GR | GR value (BSJ-01-175; 0.01 µM): 0.24 GR | GR value (BSJ-01-175; 0.03162 µM): -0.144 GR | GR value (BSJ-01-175; 0.1 µM): -0.164 GR | GR value (BSJ-01-175; 0.3162 µM): -0.381 GR | GR value (BSJ-01-175; 1 µM): -0.45 GR | GR value (BSJ-01-175; 3.162 µM): -0.505 GR | GR value (BSJ-01-175; 10 µM): -0.777 GR | GR value (ABT-737; 0.001 µM): 0.926 GR | GR value (ABT-737; 0.003162 µM): 1.05 GR | GR value (ABT-737; 0.01 µM): 1.03 GR | GR value (ABT-737; 0.03162 µM): 1.04 GR | GR value (ABT-737; 0.1 µM): 1.04 GR | GR value (ABT-737; 0.3162 µM): 1.02 GR | GR value (ABT-737; 1 µM): 0.957 GR | GR value (ABT-737; 3.162 µM): 0.86 GR | GR value (ABT-737; 10 µM): 0.279 GR | GR value (Saracatinib/AZD0530; 0.001 µM): 1 GR | GR value (Saracatinib/AZD0530; 0.003162 µM): 1.03 GR | GR value (Saracatinib/AZD0530; 0.01 µM): 0.984 GR | GR value (Saracatinib/AZD0530; 0.03162 µM): 1.03 GR | GR value (Saracatinib/AZD0530; 0.1 µM): 0.952 GR | GR value (Saracatinib/AZD0530; 0.3162 µM): 0.942 GR | GR value (Saracatinib/AZD0530; 1 µM): 0.86 GR | GR value (Saracatinib/AZD0530; 3.162 µM): 0.671 GR | GR value (Saracatinib/AZD0530; 10 µM): 0.162 GR | GR value (Rucaparib; 0.001 µM): 0.952 GR | GR value (Rucaparib; 0.003162 µM): 1.09 GR | GR value (Rucaparib; 0.01 µM): 0.804 GR | GR value (Rucaparib; 0.03162 µM): 0.916 GR | GR value (Rucaparib; 0.1 µM): 0.925 GR | GR value (Rucaparib; 0.3162 µM): 0.845 GR | GR value (Rucaparib; 1 µM): 1.01 GR | GR value (Rucaparib; 3.162 µM): 0.932 GR | GR value (Rucaparib; 10 µM): 0.714 GR | GR value ([1]; 0.001 µM): 0.974 GR | GR value ([1]; 0.003162 µM): 0.901 GR | GR value ([1]; 0.01 µM): 0.723 GR | GR value ([1]; 0.03162 µM): 0.933 GR | GR value ([1]; 0.1 µM): 0.894 GR | GR value ([1]; 0.3162 µM): 0.766 GR | GR value ([1]; 1 µM): 0.655 GR | GR value ([1]; 3.162 µM): 0.747 GR | GR value ([1]; 10 µM): 0.392 GR | GR value (Cediranib/AZD2171; 0.001 µM): 1.04 GR | GR value (Cediranib/AZD2171; 0.003162 µM): 0.989 GR | GR value (Cediranib/AZD2171; 0.01 µM): 1.07 GR | GR value (Cediranib/AZD2171; 0.03162 µM): 1.07 GR | GR value (Cediranib/AZD2171; 0.1 µM): 1.06 GR | GR value (Cediranib/AZD2171; 0.3162 µM): 1.22 GR | GR value (Cediranib/AZD2171; 1 µM): 1.2 GR | GR value (Cediranib/AZD2171; 3.162 µM): 1.08 GR | GR value (Cediranib/AZD2171; 10 µM): 0.941 GR | GR value (Buparlisib/NVP-BKM120; 0.001 µM): 1.05 GR | GR value (Buparlisib/NVP-BKM120; 0.003162 µM): 1.07 GR | GR value (Buparlisib/NVP-BKM120; 0.01 µM): 0.976 GR | GR value (Buparlisib/NVP-BKM120; 0.03162 µM): 0.845 GR | GR value (Buparlisib/NVP-BKM120; 0.1 µM): 0.505 GR | GR value (Buparlisib/NVP-BKM120; 0.3162 µM): 0.186 GR | GR value (Buparlisib/NVP-BKM120; 1 µM): -0.365 GR | GR value (Buparlisib/NVP-BKM120; 3.162 µM): -0.533 GR | GR value (Buparlisib/NVP-BKM120; 10 µM): -0.494 GR
